Source: patent US8815529B2, “Sulfotransferase assay” (Research & Diagnostics Systems, Inc., priority 2011, dated 2014)
Values belong to the compound of their own block, whether it stands above or below them.

Legend:
gPAPP [1] = target: T1, gPAPP (Mus musculus, UniProt Q80V26); test: Specificity of gPAPP on 3′-AMP, 5′-AMP, PAP and PAPS (phosphate release); type: biochemical; details: for phosphate released by gPAPP versus amount of gPAPP: 50 nmol PAP or PAPS, pH 7.5, 20 minutes; for phosphate released by gPAPP versus amount of gPAPP / activity of gPAPP alone on the nucleotide: 10 mM Mg2+; for activity of gPAPP alone on the nucleotide: 1 μg gPAPP
T1 construct: N-terminal His-tagged recombinant protein containing amino acids from E51 to K356; His tag (N); host or cells: CHO cells
T1 sequence (Q80V26 51-356): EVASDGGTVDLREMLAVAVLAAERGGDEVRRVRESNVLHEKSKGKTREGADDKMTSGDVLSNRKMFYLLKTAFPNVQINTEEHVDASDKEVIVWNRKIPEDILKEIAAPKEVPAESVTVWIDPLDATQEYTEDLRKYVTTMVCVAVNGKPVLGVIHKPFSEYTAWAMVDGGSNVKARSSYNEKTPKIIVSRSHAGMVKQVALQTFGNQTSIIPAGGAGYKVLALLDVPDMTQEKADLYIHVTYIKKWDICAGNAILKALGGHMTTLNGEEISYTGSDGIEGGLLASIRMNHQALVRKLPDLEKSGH
Description: (§1) In the following examples, the gPAPP used was recombinant mouse gPAPP expressed in CHO cells as an N-terminal His-tagged recombinant protein containing amino acids from E51 to K356, created by R & D Systems. The sequence was based on accession number NP 808398 from the National Center for Biotechnology Information. The chondroitin sulfate (CS) and p-nitrophenol (pNP) were obtained from Sigma Aldrich. The PAPS was prepared by R & D Systems using recombinant S. cerevisiae ATP sulurylase and P. chrysogenum APS kinase. The APS kinase was also prepared by R & D Systems. Recombinant human SULT1A1, CHST3, CD73, TNAP and Malachite Green Phosphate Detection Kit were from R & D Systems. Protein concentrations were quantified using the Bradford assay as described by Bradford, M. M., A rapid and sensitive method for the quantitation of microgram quantities of protein utilizing the principle of protein-dye binding. Anal Biochem. 1976. Vol 72, Page 248-254, the relevant portions of which are hereby incorporated by reference. Phosphate levels were determined using the Malachite Green Phosphate Detection Kit available from R & D Systems, according to the package instructions. All examples were performed in a buffer of 25 mM Tris at pH 7.5.
The specificity of gPAPP was first tested on 3′-AMP, 5′-AMP and PAP in the absence or presence of CD73 by combining 10 nmol of either 3′-AMP, 5′-AMP or PAP with 1 μg gPAPP and/or 0.1 μg CD73 in 50 μL assay buffer containing 10 mM Mg^2 at pH 7.5. In a parallel experiment, the same amount of nucleotide was combined with tissue-non-specific alkaline phosphatase (TNAP) at pH 9.0. The ratio between the phosphate released by gPAPP and/or CD73 (Pi) and the phosphate released by TNAP (PiTNAP) was plotted versus the nucleotide and phosphatases in FIG. 5. […] When gPAPP and CD73 were used together, they released twice as much phosphate from PAP than gPAPP alone.
The specificity of gPAPP was tested on PAP and PAPS. In this example, 50 nmol of either PAP or PAPS was treated with different amounts of gPAPP in 50 μL assay buffer containing 10 mM Mg^2 at pH 7.5 for 20 minutes. The released phosphate was plotted versus the amount of gPAPP.

gPAPP [2] = target: T1, gPAPP; test: Inhibition of gPAPP hydrolysis of PAP by PAPS; type: biochemical; details: 0.5 mM PAPS, amount of PAP greater than the coupling capacity
Description: as §1, with “Vol 72, Page 248-254, the relevant portions of which are hereby incorporated by reference.” left out, “All examples were performed in a buffer of 25 mM Tris at pH 7.5.” left out
In this example, the coupling capacity of gPAPP was determined. […] The coupling capacity of gPAPP was determined by combining 1 μg gPAPP with increasing amounts of PAP, in the presence or absence of 0.5 mM PAPS in 50 μL assay buffer containing 10 mM Mg^2+ at pH 7.5 for either 20 or 40 minutes. […]

CHST3 = target: T2, CHST3 (Homo sapiens, UniProt Q7LGC8); test: CHST3 substrate curves for CS and PAPS, gPAPP-coupled assay; type: biochemical
T2 construct: purchased R & D Systems
T2 sequence (Q7LGC8 1-479): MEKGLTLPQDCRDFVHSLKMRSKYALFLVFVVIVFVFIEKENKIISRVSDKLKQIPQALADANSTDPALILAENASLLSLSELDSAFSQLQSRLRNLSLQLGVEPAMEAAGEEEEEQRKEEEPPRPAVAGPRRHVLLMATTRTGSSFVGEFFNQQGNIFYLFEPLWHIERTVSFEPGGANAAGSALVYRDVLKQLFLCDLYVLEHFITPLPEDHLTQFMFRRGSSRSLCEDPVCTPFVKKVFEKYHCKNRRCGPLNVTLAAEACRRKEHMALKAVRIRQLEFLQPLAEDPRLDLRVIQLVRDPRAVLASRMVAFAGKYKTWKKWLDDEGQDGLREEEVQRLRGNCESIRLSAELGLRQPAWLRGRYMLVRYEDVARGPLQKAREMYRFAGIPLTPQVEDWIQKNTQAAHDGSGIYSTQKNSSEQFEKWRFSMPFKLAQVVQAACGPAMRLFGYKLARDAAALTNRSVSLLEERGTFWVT
Description: as §1
Carbohydrate sulfotransferase 3 (CHST3) is a sulfotransferase which is known to catalyze the sulfation of N-acetylgalactosamine at the 6-O position. In a first series of reactions, 1 μg CHST3 was combined with 1 μg gPAPP and increasing concentrations of CS in 50 μl assay buffer containing 0.8 mM PAPS, 10 mM MgCl2 at pH 7.5. In a second series of reactions, 0.4 μg CHST3 was combined with 1 μg gPAPP and increasing concentrations of PAPS in 50 μL assay buffer containing […], 10 mg/ml CS, 10 mM MgCl2 at pH 7.5.
An enzyme dose curve was then created for CHST3 at the optimal concentrations for both the donor and acceptor substrates in FIG. 11. To create the dose curve, 1 μg gPAPP was combined with increasing amounts of CHST3 in the presence of 10 mg/ml of CS and 0.5 mM of PAPS in 50 μl assay buffer containing 10 mM MgCl2 at pH 7.5.

sulfotransferases = details: reported; cited from earlier work
SULT1A1 [3] = target: T3, SULT1A1 (Homo sapiens, UniProt P50225); details: read-out: half maximal velocity (Km); reported; cited from earlier work
T3 sequence (P50225 whole entry): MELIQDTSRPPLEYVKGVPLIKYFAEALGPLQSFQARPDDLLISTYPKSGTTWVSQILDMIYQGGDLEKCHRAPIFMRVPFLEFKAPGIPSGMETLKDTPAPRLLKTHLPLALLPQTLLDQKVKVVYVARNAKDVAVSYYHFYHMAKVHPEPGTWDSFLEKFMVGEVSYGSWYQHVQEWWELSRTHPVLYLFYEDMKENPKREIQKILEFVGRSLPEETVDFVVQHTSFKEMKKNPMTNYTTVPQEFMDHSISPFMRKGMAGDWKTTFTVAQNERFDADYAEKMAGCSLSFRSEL

SULT1A1 [4] = target: T3, SULT1A1; test: SULT1A1 velocity versus pNP concentration, gPAPP/CD73-coupled assay; type: biochemical; parameters: purchased R & D Systems; details: 0.1 μg SULT1A1, 0.25 mM PAPS, gPAPP and CD73
Description: as §1, with “Anal Biochem. 1976. Vol 72, Page 248-254, the relevant portions of which are hereby incorporated by reference.” left out, “All examples were performed in a buffer of 25 mM Tris at pH 7.5.” left out
A series of reactions were performed by combining increasing concentrations of pNP with 0.1 μg SULT1A1, 2 μg PAPP and 0.1 μg CD73 in 200 μL of an assay buffer containing 0.25 mM PAPS, 10 mM MgCl2 at pH 7.5. […] These values are consistent with reported values for SULT1A1 determined using radioisotope assays in the literature.

- phosphate released by gPAPP versus amount of gPAPP (gPAPP [1]): showed no change
- inhibition of the hydrolysis of PAP (gPAPP [2]): ~20%
- level above which substrate inhibition occurred (CHST3; 0.4 μg CHST3, 10 mg/ml CS): above 0.5 mM
- Km (CHST3; 0.4 μg CHST3, 10 mg/ml CS, read-out: concentration for half-maximal velocity (Km for PAPS)): < 100 µM
- optimal concentration (visually determined) (CHST3; highest point of the curve of FIG. 10B): about 0.5 mM
Compound: Nc1ncnc2c1ncn2[C@@H]1O[C@H](COP(=O)(O)OS(=O)(=O)O)[C@@H](OP(=O)(O)O)[C@H]1O [PAPS, 3′-phosphoadenosine-5′-phosphosulfate]

- phosphate released by gPAPP and CD73 together compared with gPAPP alone (gPAPP [1]; 10 nmol nucleotide, 1 μg gPAPP and 0.1 μg CD73, 10 mM Mg2+, pH 7.5): twice as much
- activity of gPAPP alone on the nucleotide (gPAPP [1]; 10 nmol nucleotide, pH 7.5): showed activity
- phosphate released by gPAPP versus amount of gPAPP (gPAPP [1]): increased with the amount of the enzyme
Compound: Nc1ncnc2c1ncn2[C@@H]1O[C@H](COP(=O)(O)O)[C@@H](OP(=O)(O)O)[C@H]1O [PAP, 3′-phosphoadenosine-5′-phosphate]
- inhibition of sulfotransferases (sulfotransferases): potent inhibitor

- activity of gPAPP alone on the nucleotide (gPAPP [1]; 10 nmol nucleotide, pH 7.5): not
Compound: Nc1ncnc2c1ncn2[C@@H]1O[C@H](CO)[C@@H](OP(=O)(O)O)[C@H]1O [3′-AMP]

- activity of gPAPP alone on the nucleotide (gPAPP [1]; 10 nmol nucleotide, pH 7.5): not
Compound: Nc1ncnc2c1ncn2[C@@H]1O[C@H](COP(=O)(O)O)[C@@H](O)[C@H]1O [5′-AMP, 5-adenosine monophosphate]

- concentration for half-maximal velocity (Km for CS) (CHST3; 1 μg CHST3, 0.8 mM PAPS): about 2 mg/ml
- substrate inhibition (CHST3; 1 μg CHST3, 0.8 mM PAPS): no substrate inhibition
- optimal concentration (visually determined) (CHST3; highest point of the curve of FIG. 10A): > 5 mg/mL
Compound: chondroitin sulfate [CS]

Compound: O=[N+]([O-])c1ccc(O)cc1 [pNP, p-nitrophenol]
- Km (SULT1A1 [3]): < 1 µM
- concentration above which substrate inhibition was present (SULT1A1 [4]): above 4 mM
- concentration for half maximum velocity (SULT1A1 [4]; projected): < 1.0 µM
